# Experimental data as given in ChEMBL document CHEMBL1909046, “DrugMatrix in vitro pharmacology data”.
# Tests used:
# [1] = DRUGMATRIX: Potassium Channel [KATP] radioligand binding (ligand: [3H] Glyburide); type: cell membranes, Membrane; conditions: hit-t15, Not Active = under 50% inhibition at 10 µM
# [2] = DRUGMATRIX: Imidazoline I2, Central radioligand binding (ligand: [3H] Idazoxan); type: cell membranes, Rattus norvegicus, Wistar, Cerebral cortex, Membrane; conditions: Not Active = under 50% inhibition at 10 µM
# [3] = DRUGMATRIX: Platelet-Derived Growth Factor (PDGF) radioligand binding (ligand: [125I] PDGF); type: cell-based; conditions: nih3t3; Not Active = under 50% inhibition at 10 µM
# Calcitonin receptor = molecular target: T1, Calcitonin receptor (Homo sapiens, UniProt P30988); type: cell membranes, Membrane; conditions: t47d; further: in other assays of this panel Not Active means under 50% inhibition at 10 µM
# T1 sequence (P30988 whole entry): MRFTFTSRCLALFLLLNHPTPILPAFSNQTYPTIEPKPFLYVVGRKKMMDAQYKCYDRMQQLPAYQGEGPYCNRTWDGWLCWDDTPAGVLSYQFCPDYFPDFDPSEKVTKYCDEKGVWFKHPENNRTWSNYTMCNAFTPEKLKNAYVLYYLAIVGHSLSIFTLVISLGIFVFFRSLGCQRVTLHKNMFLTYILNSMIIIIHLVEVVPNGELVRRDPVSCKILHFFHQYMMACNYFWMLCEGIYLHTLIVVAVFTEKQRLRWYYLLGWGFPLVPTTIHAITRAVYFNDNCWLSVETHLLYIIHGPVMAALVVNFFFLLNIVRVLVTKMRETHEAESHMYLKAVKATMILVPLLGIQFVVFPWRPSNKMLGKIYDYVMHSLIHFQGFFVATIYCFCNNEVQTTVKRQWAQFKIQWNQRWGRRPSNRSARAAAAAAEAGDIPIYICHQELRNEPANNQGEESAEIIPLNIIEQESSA
# [4] = molecular target: Sodium-dependent noradrenaline transporter (Homo sapiens, UniProt P23975); assay: DRUGMATRIX: Norepinephrine Transporter radioligand binding (ligand: [125I] RTI-55); type: cell membranes, MDCK, Membrane; conditions: Not Active = under 50% inhibition at 10 µM; for Ki: read-out: Ki
# Interstitial collagenase = molecular target: T2, Interstitial collagenase (Homo sapiens, UniProt P03956); assay: biochemical; type: tissue-based, Rheumatoid synovial fibroblasts;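 further: MMP-1 enzyme inhibition assay using a peptide substrate; in other assays of this panel Not Active means under 50% inhibition at 10 µM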
# T2 sequence (P03956 whole entry): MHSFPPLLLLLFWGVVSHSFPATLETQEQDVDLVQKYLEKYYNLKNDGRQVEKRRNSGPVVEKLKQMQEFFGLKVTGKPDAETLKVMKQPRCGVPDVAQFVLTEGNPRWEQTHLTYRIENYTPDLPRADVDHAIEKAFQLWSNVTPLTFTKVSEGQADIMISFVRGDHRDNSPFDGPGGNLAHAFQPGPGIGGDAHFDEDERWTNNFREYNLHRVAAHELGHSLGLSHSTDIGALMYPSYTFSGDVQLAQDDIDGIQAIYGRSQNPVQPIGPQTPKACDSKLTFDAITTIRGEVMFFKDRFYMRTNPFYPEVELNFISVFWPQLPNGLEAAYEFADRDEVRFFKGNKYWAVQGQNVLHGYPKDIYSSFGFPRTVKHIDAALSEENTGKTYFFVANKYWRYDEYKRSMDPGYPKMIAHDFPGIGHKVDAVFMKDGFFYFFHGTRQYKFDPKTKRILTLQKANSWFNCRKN
# Sodium-dependent noradrenaline transporter, sequence (P23975 whole entry): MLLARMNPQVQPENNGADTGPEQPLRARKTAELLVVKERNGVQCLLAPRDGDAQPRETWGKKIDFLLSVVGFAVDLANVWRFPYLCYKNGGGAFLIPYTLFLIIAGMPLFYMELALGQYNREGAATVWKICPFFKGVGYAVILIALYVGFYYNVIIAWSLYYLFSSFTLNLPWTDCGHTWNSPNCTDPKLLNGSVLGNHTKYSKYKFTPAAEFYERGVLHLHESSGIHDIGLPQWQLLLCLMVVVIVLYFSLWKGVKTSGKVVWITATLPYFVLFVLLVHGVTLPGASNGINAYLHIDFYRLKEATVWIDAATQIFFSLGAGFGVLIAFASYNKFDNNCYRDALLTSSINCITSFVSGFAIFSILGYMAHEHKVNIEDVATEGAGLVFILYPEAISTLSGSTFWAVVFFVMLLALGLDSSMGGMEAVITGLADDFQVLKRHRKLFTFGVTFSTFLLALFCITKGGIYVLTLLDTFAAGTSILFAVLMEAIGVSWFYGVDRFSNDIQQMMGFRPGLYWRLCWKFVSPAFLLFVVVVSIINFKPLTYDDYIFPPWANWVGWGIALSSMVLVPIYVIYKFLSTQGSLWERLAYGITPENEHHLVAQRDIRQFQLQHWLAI
SMILES,IC50 ([1]; read-out: IC50) [nM],Ki ([1]; read-out: Ki) [nM],IC50 [2],Ki [2],IC50 [3],Ki [3],IC50 (Calcitonin receptor),IC50 ([4]; mdck),IC50 (Interstitial collagenase),IC50 [1],Ki [1],IC50 ([4]; read-out: IC50) [nM],Ki [4] [nM],IC50 (Interstitial collagenase; read-out: IC50) [µM],IC50 ([2]; read-out: IC50) [µM],Ki ([2]; read-out: Ki) [nM]
CCC1=C(C)CN(C(=O)NCCc2ccc(S(=O)(=O)NC(=O)N[C@H]3CC[C@H](C)CC3)cc2)C1=O [GLIMEPIRIDE],100,11,Not Active,Not Active,Not Active,Not Active,Not Active,Not Active,Not Active,,,,,,,
Nc1cc(-c2ccncc2)c[nH]c1=O [INAMRINONE],,,Not Active,Not Active,Not Active,Not Active,Not Active,Not Active,Not Active,Not Active,Not Active,,,,,
CCCCC1=NC2(CCCC2)C(=O)N1Cc1ccc(-c2ccccc2-c2nnn[nH]2)cc1 [IRBESARTAN],,,Not Active,Not Active,Not Active,Not Active,Not Active,Not Active,Not Active,Not Active,Not Active,,,,,
CN1CCC(=C2c3ccccc3CC(=O)c3sccc32)CC1 [KETOTIFEN],,,Not Active,Not Active,Not Active,Not Active,Not Active,Not Active,Not Active,Not Active,Not Active,,,,,
N[C@@H](Cn1ccc(=O)c(O)c1)C(=O)O [L-MIMOSINE],,,Not Active,Not Active,Not Active,Not Active,Not Active,Not Active,Not Active,Not Active,Not Active,,,,,
C[N+](C)(C)C[C@H](O)CC(=O)[O-] [LEVOCARNITINE],,,Not Active,Not Active,Not Active,Not Active,Not Active,Not Active,Not Active,Not Active,Not Active,,,,,
CN1CCCC(CN2c3ccccc3Sc3ccccc32)C1 (stereo not drawn) [MEPAZINE],,,Not Active,Not Active,Not Active,Not Active,Not Active,,Not Active,Not Active,Not Active,1880,1860,,,
Cc1cccc(C)c1NC(=O)C1CCCCN1C (stereo not drawn) [MEPIVACAINE],,,Not Active,Not Active,Not Active,Not Active,Not Active,Not Active,Not Active,Not Active,Not Active,,,,,
CN(C)C(=N)NC(=N)N [METFORMIN],,,Not Active,Not Active,Not Active,Not Active,Not Active,Not Active,Not Active,Not Active,Not Active,,,,,
CC(C)(C)NCC(O)COc1cccc2c1CC(O)C(O)C2 (stereo not drawn) [NADOLOL],,,Not Active,Not Active,Not Active,Not Active,Not Active,Not Active,Not Active,Not Active,Not Active,,,,,
C[C@]12CC[C@H]3[C@@H](CCC4=CC(=O)CC[C@@H]43)[C@@H]1CC[C@@H]2O [NANDROLONE],,,Not Active,Not Active,Not Active,Not Active,Not Active,Not Active,Not Active,Not Active,Not Active,,,,,
C[C@@H]1C/C=C/C=C/C=C/C=C/[C@H](O[C@@H]2O[C@H](C)[C@@H](O)[C@H](N)[C@@H]2O)C[C@@H]2O[C@](O)(C[C@@H](O)C[C@H]3O[C@@H]3/C=C/C(=O)O1)C[C@H](O)[C@H]2C(=O)O [NATAMYCIN],,,Not Active,Not Active,Not Active,Not Active,Not Active,Not Active,Not Active,Not Active,Not Active,,,,,
CN(C)C(=O)Oc1cccc([N+](C)(C)C)c1.[Br-] [NEOSTIGMINE BROMIDE],,,Not Active,Not Active,Not Active,Not Active,Not Active,Not Active,Not Active,Not Active,Not Active,,,,,
NC(=O)c1cccnc1 [NIACINAMIDE],,,Not Active,Not Active,Not Active,Not Active,Not Active,Not Active,Not Active,Not Active,Not Active,,,,,
CS(=O)(=O)Nc1ccc([N+](=O)[O-])cc1Oc1ccccc1 [NIMESULIDE],,,Not Active,Not Active,Not Active,Not Active,Not Active,Not Active,,Not Active,Not Active,,,23.3,,
CN1C(=O)CN=C(c2ccccc2)c2cc([N+](=O)[O-])ccc21 [NIMETAZEPAM],,,Not Active,Not Active,Not Active,Not Active,Not Active,Not Active,Not Active,Not Active,Not Active,,,,,
COc1ccc2c(c1OC)C(=O)O[C@@H]2[C@H]1c2c(cc3c(c2OC)OCO3)CCN1C [NOSCAPINE],,,Not Active,Not Active,Not Active,Not Active,Not Active,Not Active,Not Active,Not Active,Not Active,,,,,
NC(=O)N1c2ccccc2CC(=O)c2ccccc21 [OXCARBAZEPINE],,,Not Active,Not Active,Not Active,Not Active,Not Active,Not Active,Not Active,Not Active,Not Active,,,,,
COc1ccnc(C[S+]([O-])c2nc3ccc(OC(F)F)cc3[nH]2)c1OC (stereo not drawn) [PANTOPRAZOLE],,,Not Active,Not Active,Not Active,Not Active,Not Active,Not Active,Not Active,Not Active,Not Active,,,,,
N=C(N)c1ccc(OCCCCCOc2ccc(C(=N)N)cc2)cc1 [PENTAMIDINE],,,,,Not Active,Not Active,Not Active,,Not Active,Not Active,Not Active,2210,2200,,3.52,2350
NNCCc1ccccc1 [PHENELZINE],,,Not Active,Not Active,Not Active,Not Active,Not Active,Not Active,Not Active,Not Active,Not Active,,,,,
CCc1ccc(CCOc2ccc(CC3SC(=O)NC3=O)cc2)nc1 (stereo not drawn) [PIOGLITAZONE],,,Not Active,Not Active,Not Active,Not Active,Not Active,Not Active,Not Active,Not Active,Not Active,,,,,
CCCNC(C)C(=O)Nc1ccccc1C (stereo not drawn) [PRILOCAINE],,,Not Active,Not Active,Not Active,Not Active,Not Active,Not Active,Not Active,Not Active,Not Active,,,,,
CCN(CC)CCNC(=O)c1ccc(N)cc1 [PROCAINAMIDE],,,Not Active,Not Active,Not Active,Not Active,Not Active,Not Active,Not Active,Not Active,Not Active,,,,,
